Laboratory results published in US20050271588A1, “Liposome targeting of matrix metalloproteinase inhibitors” (priority 2001, published 2005).
Values belong to the molecule of their own block, whether it stands above or below them. Positions of bridges follow the written chain, without caps; N, C: chain ends. No end group written: not given here.

How the values were obtained:
MMP-9 = target: T1, MMP-9 (Homo sapiens, UniProt P14780); assay: Gelatinase assay with fluorogenic peptide substrate; type: biochemical; conditions: 100 μM EDTA, MMP-9 5 nM
T1 construct: made in house
Method: The activity of MMP-9 was measured also using the fluorogenic peptide substrate MCA-Pro-Leu-Ala-Nva-Dpa-Ala-Arg (Calbiochem, San Diego, Calif., USA). More specifically, 50 ng of MMP-9 was preincubated in PBS for 30 min at RT in the absence or presence of CTT or its liposome complex. Subsequently, the fluorogenic substrate was added to a final concentration of 0.1 mM and the incubation was continued at 37° C. for 15 min, whereafter fluorescence intensities were measured with exitation at 340 nm and emission at 390 nm in a microtiter plate reader.

HT1080 cells = assay: Blocking of CTT-liposome uptake by antibodies and proteinase inhibitors; type: cell-based, human; conditions: TIMP-2 10 μg/ml, Marimastat 50 μM, EDTA 500 μM, aprotinin 1 μg/ml
Method: We further investigated if cell surface-bound gelatinases were the receptors for the CTT-containing liposomes. Cells were washed to remove soluble forms of gelatinases, and then preincubated for 30 min with MMP inhibitors or specific antibodies before the addition of liposomes.
(§1) We also preincubated cells with phorbol ester (TPA) (50 nM). Preincubation times varied from 15 to 75 min. Treatment of cells by phorbol ester (TPA) increases both expression and secretion of MMP-9 (Toth et al., 1997). […] M-17 inhibits the binding of MMP-9 to the substrate and this inhibition is expected to be concentration dependent. It is not known if rabbit polyclonal antibody blocks human MMP-2 (Murphy et al., 1994). Final concentrations of the indicated peptide, Adriamycin, antibodies and liposomes were 85 μM, 0.2 mM, 20 μg/ml, and 0.4 μM, respectively.

cells = assay: Effect of phorbol ester (TPA) preincubation on CTT-liposome uptake; type: cell-based; conditions: TPA 50 nM
Method: as §1, with “1997). Results are presented as RFI=I/I0, where RFI is relative fluorescence intensity, I0 is the emission intensity for the control, 2 μM rhodamine B in LUVs without the peptides, and I is the rhodamine emission for the peptide-liposome complexes taken up by the cells.” for “1997).”

[1] = Assay for lipid mixing (liposome fusion, NBD-PE/DPPRho); type: physicochemical; conditions: within 15 min
Method: The extent of exposure of Trp to the aqueous phase was studied using I— as a collisional quencher (Lakowicz, 1999). The extent of quenching was calculated by using the equation: F0/F=1+k[Q]=1+kqτ0[Q] where F0 and F are Trp fluorescence intensities at 345 nm in the absence and presence of the quencher, Q, τ0 is Trp fluorescence lifetime in the absence of the quencher, k is the Stern-Volmer constant (obtained from the slope of the linear fit of the data). Fluorescence of Trp in CTT (5 μM) and its quenching were measured in the absence and presence of POPC/POPE (80:20, mol/mol) LUVs (final lipid concentration of 0.5 mM). The results were corrected for background caused by PBS and liposomes. Assay for lipid mixing. The ability of the CTT, CLP, STT, and CWL peptides to induce liposome fusion was assessed by measuring lipid mixing, as described earlier (Struck et al., 1981). In brief, NBD-PE (X=0.01) and DPPRho (X=0.01) were incorporated into liposomes (POPC/POPE, 78/20, mol/mol). Due to the spectral overlap of NBD-PE (donor) emission and DPPRho (acceptor) absorption resonance energy transfer between these dyes is highly efficient. As liposomes containing NBD-PE and DPPRho are mixed with non-labeled liposomes, fusion is observed as an increase in the emission intensity of NBD-PE due to the dilution of probes. Excitation and emission wavelengths for NBD-PE at 430 nm and 530 nm were used. All fluorescence measurements were done at 37° C.

[2] = Penetration of peptides into lipid monolayers (surface pressure); type: physicochemical; conditions: eggPC monolayer, peptide 200 μM
Method: Interaction of peptides with lipid monolayers. Penetration of peptides into mono-molecular lipid films was measured using magnetically stirred circular wells (subphase volume 400 μl). Surface pressure (π) was monitored with a Wilhelmy wire attached to a microbalance (μ TroughS, Kibron Inc., Helsinki, Finland) connected to a Pentium PC. Lipids were spread on the air-buffer (PBS, pH 7) interface in chloroform (approx. one mg/ml) to different initial surface pressures (π0) and were allowed to equilibrate for 15 min before the addition of the indicated peptides (4 μ1,10 mg/ml in H2O and CWL in DMSO) into the subphase. The increment in π from the initial surface pressures (π0) after the addition of peptide was complete in approximately 20 min and the difference between π0 and the value observed after binding of the peptide into the film was taken as Δπ. All measurements were performed at ambient temperature (˜+24° C.). The data are represented as Δπ vs. […] (Brockman, 1999).

U937 cells [3] = assay: Cell killing by Adriamycin-containing liposomes, EthD-1 viability assay; type: cell-based; conditions: U937, 24 h, peptide 85 μM, Adriamycin 0.4 μM
Method: Viability assays. Peptide-liposome complexes with the encapsulated adriamycin were made as described above, yielding final concentrations of peptide, lipid, and adriamycin of 85 μM, 0.2 mM, and 0.4 μM, respectively, and were subsequently added to a ten μl (10^5 cells) sample of U937 cells. For the detection of dead cells EthD-1 was used. This fluorophore is membrane-impermeable and emits fluorescence only when bound to DNA (Papadopoulos et al., 1994). Accordingly, EthD-1 readily enters dead cells and binds to their DNA, its fluorescence intensity correlating to the amount of dead cells. EthD-1 emission was measured using microplate reader with excitation at 495 nm and emission at 635 nm. Student's t-test was used to assess statistical significance.

U937 cells [4] = assay: Uptake of liposome-encapsulated rhodamine B by U937 cells; type: cell-based; conditions: U937, fluorescence plate-reader
Method: In another series of experiments the water-soluble fluorescent marker rhodamine B was encapsulated into liposomes and its uptake by cells was measured. Samples for rhodamine B uptake were prepared by mixing 60 μl of POPC/POPE (80/20, mol/mol, one mM) liposomes containing 10 μM rhodamine B to 300 μl of DMEM medium supplemented with 10% fetal bovine serum, Glutamax I, penicillin 100 U/ml and streptomycin 0.1 mg/ml. Peptides were then added to obtain a final concentration of […]. Ten μl (10^5 cells) of medium containing the indicated cells were combined with the LUVs. After an incubation for 15 min at 37° C. or +4° C. liposomes not bound to the cells were removed from 96-well plates by rinsing three times with cold PBS. The +4° C. temperature served as a control for non-endocytotic liposome uptake by cells (Oess and Hildt, 2000). The relative amount of rhodamine B associated with the cells was determined using microplate reader with excitation at 535 nm and emission at 595 nm.
as §1, with “1997). Results are presented as RFI=I/I0, where RFI is relative fluorescence intensity, I0 is the emission intensity for the control, 2 μM rhodamine B in LUVs without the peptides, and I is the rhodamine emission for the peptide-liposome complexes taken up by the cells.” for “1997).”
Cell cultures and fluorescence microscopy. U937 (ECACC 85011440), HT 1080 (ECACC 85111505), and CHO (ECACC 85050302) cells were cultured in RPMI or DMEM medium supplemented with 10% fetal bovine serum, Glutamax I, penicillin (100 U/ml), and streptomycin (0.1 mg/ml). Uptake of rhodamine B containing liposomes by the cultured cells was verified by fluorescence microscopy. An inverted fluorescence microscope (Zeiss IM 35) equipped with Nikon extra long working distance objectives (20×) and (40×) were used. Samples were prepared as described for the rhodamine uptake assay, with slight modifications. Accordingly, instead of washing, U937, HT 1080, and CHO cells with the rhodamine-containing liposomes and in cell culture medium were transferred into Nunclon 48 plate wells. Excitation and emission wavelengths were selected by suitable bandpass filters (Melles-Griot) transmitting in the range 535 nm and >600 nm, respectively. Fluorescence images were viewed with a Peltier-cooled digital camera (C4742-95, Hamamatsu, Japan) connected to a computer and operated by software (Hipic 5.0) provided by the instrument manufacturer.

MMP-2 = target: T2, MMP-2 (Homo sapiens, UniProt P08253); assay: Casein zymography, inhibition of MMP-2; type: biochemical; conditions: 85 μM peptide
T2 construct: purchased Boehringer Mannheim GmbH (Germany)
T2 sequence (P08253 110-660): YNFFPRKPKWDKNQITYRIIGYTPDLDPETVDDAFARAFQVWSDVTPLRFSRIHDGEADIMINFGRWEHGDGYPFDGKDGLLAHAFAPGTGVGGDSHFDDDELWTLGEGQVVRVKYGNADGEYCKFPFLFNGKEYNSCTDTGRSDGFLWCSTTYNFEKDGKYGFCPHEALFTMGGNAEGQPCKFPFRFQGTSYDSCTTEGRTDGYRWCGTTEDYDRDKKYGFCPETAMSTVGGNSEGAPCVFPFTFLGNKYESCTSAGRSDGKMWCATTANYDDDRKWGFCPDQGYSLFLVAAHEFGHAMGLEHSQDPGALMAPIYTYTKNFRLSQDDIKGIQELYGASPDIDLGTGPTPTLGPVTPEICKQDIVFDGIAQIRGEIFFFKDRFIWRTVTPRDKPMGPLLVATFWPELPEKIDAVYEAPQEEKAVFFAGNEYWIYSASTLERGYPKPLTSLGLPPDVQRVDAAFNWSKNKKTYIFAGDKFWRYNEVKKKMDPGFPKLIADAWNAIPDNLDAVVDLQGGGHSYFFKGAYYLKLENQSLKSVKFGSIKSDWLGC
Method: Assay for gelatinases. Inhibition of MMP-9 and MMP-2 by the different synthetic peptides was measured using casein zymography (Halinen et al., 1996). MMP-9 was purified as described (Sorsa et al., 1997). Subsequently, MMP-2 (2.5 μg) or MMP-9 (2.5 μg) was run on a 10% SDS-PAGE containing two mg/ml casein. The gel was first washed in Triton X-100 containing buffer to remove SDS, and it was cut into five slices which were immersed into peptide (CTT, CLP, CWL or STT) containing solutions (85 μM). After incubation for 48 hrs at 37° C., the gels were stained with Coomassie blue, scanned, and the digested areas quantitated using image analysis (Global Lab Image 3.2, Data Translation Inc. and Acuity Imaging Inc., Marlboro, Mass., USA).

T1 sequence (P14780 94-707): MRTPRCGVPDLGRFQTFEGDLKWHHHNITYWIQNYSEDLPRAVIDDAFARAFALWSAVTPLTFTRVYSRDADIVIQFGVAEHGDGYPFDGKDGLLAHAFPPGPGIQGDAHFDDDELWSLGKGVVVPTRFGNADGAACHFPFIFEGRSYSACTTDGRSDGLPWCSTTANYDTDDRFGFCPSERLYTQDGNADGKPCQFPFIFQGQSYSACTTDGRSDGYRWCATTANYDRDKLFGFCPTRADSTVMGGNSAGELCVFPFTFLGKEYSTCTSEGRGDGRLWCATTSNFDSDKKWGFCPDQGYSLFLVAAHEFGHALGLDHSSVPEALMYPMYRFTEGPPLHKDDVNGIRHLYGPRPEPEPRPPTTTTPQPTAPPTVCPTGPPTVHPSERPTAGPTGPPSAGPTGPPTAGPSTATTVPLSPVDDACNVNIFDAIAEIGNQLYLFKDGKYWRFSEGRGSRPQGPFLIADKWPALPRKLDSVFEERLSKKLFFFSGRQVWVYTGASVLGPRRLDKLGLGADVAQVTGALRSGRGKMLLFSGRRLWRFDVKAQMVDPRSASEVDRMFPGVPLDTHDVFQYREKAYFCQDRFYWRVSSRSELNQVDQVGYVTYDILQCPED

Inhibition of MMP-9 (MMP-9): Complete inhibition
Molecule: O=C(O)CN(CCN(CC(=O)O)CC(=O)O)CC(=O)O [EDTA, reference compound]

Molecule: CNC(=O)[C@@H](NC(=O)[C@H](CC(C)C)[C@H](O)C(=O)NO)C(C)(C)C [Marimastat]
Inhibition of liposome transfer into cells (HT1080 cells): approx. 50%

Molecule: CCCCCCCCCCCCCC(=O)O[C@@H]1[C@@H](C)[C@@]2(O)[C@@H](C=C(CO)C[C@]3(O)C(=O)C(C)=C[C@@H]23)[C@H]2C(C)(C)[C@]12OC(C)=O [TPA]
Effect on uptake of CTT-liposomes (cells; prolonged incubation (75 min)): inhibited
Effect on uptake of CTT-liposomes (cells; short exposure time (15 min)): increased

Molecule: CLPGHWGFPSC (cysteine pairing not given here) [CTT homolog, part of EGF-7 domain in human laminin β-1 chain]
Lipid mixing / vesicle fusion (NBD-PE emission) [1]: lack of lipid mixing
Initial monolayer packing pressure above which membrane penetration was abolished [2]: 33 mN/m
Increase in killing of cells vs Adriamycin liposomes without peptide (U937 cells [3]): 1.3 fold
Enhancement of uptake of liposome-encapsulated rhodamine vs liposomes lacking peptide (U937 cells [4]): Only minor effect

Molecule: Cys-Trp-Leu-Thr-Phe-Thr-His-Gly-Thr-Cys (CWLTFTHGTC; disulfide 1-10) [scrambled cyclic peptide, reference compound]
Increase in killing of cells vs Adriamycin liposomes without peptide (U937 cells [3]): not
Enhancement of uptake of liposome-encapsulated rhodamine vs liposomes lacking peptide (U937 cells [4]): inefficient

Inhibition of MMP-2 activity (MMP-2): approx. 30%
Molecule: STTHWGFTLS
Lipid mixing / vesicle fusion (NBD-PE emission) [1]: lack of lipid mixing
Initial monolayer packing pressure above which membrane penetration was abolished [2]: 31 mN/m
Increase in killing of cells vs Adriamycin liposomes without peptide (U937 cells [3]): 1.7 fold
Enhancement of uptake of liposome-encapsulated rhodamine vs liposomes lacking peptide (U937 cells [4]): Only minor effect

Molecule: aprotinin
Inhibition of liposome transfer into cells (HT1080 cells): no significant inhibitory effect
